Measurements taken from US6627649B1, “Pharmaceutical compositions containing in combination two antagonists selective of arginine-vassopressin V receptors, even of V1 a and V2 receptors” (Sanofi-Synthelabo, priority 1998, dated 2003).

Experiments:
[1] = system: normally hydrated conscious rat; assay: water diuresis induced in the normally hydrated conscious rat (urinary volume, osmolality, Na+ and K+ excretion over 24 h); format: in vivo, Sprague Dawley male rats; settings: for effect on urinary excretion (in words) / effect on urinary excretion of Na+ and K+ ions (in words) / effect on urinary osmolality (in words): oral, over 24 hours
Experimental: Serradeil-Le Gal et al., J. Clin. Invest. 1996, 98, 2729-2738.
The various assays are performed on Sprague Dawley male rats (280+/−20 g) obtained from Iffa Credo (France).
Twenty four hours before the start of the study, the rats were randomized and placed in metabolic cages with food and water ad libitum. They received orally 3 ml/kg of a 0.6% aqueous solution of methylcellulose. The urines were collected over a 24 hour period, i.e. day D-1.
The next morning the rats are treated orally (solvent or products alone or in combination) and returned individually to their metabolic cage for a period of 24 hours with food and water ad libitum. The urines are collected over a period of 24 hours after treatment, i.e. day D-0.
Urinary osmolality and the urinary excretion of Na^+ and K^+ ions are also measured during the 24 hour period before and after treatment. The urinary osmolality is measured with a freezing point depression osmometer (Fisk OS 110 model, Elvetec, Marseille, France) and the urinary concentrations of sodium and potassium are measured with a flame photometer (IL 943, Instruments Laboratories, Marseille, France).
The compounds alone (compound A, compound B) or in combination (compound A+compound B) are suspended in a 0.6% aqueous solution of methylcellulose and administered by gavage in a final volume of 3 ml/kg.
Compound B was used in the form of its dihydrogen phosphate monohydrate salt, the doses indicated are expressed in terms of the base.
The results are expressed in the form of the mean+/−SEM (standard error of the mean). The statistical analysis of the results is performed by means of a two factor variance analysis with repeated measurements of the time factor. The comparison of the means is made with the aid of the Dunnett test for a comparison with respect to a time or group of reference. Only the values of p lower than 5% are considered to be significant (p<0.05).
ASSAY No. 1: Comparative effect on urinary excretion, urinary osmolality and excretion of the Na^+ and K^+ ions in the rat after oral administration of compound A alone, compound B alone and of the combination compound A^+ compound B.
a) Study Performed by Oral Administration of a Fixed Dose of Compound A (30 mg/kg) combined with increasing doses of compound B (0.3, 1 or 3 mg/kg).
b) Study Performed by Oral Administration of a Fixed Dose of Compound B (1 mg/kg) combined with increasing doses of compound A (3,10 or 30 mg/kg).

human V2 receptors = human V2 receptors (Homo sapiens, UniProt P30518); settings: cited from earlier work
human V1a receptors = human V1a receptors (Homo sapiens, UniProt P37288); settings: various species, in particular human V1a receptors; J. Clin. Invest., 1993, 92 224-231; cited from earlier work
[2] = study a, 0.3 mg/kg oral, D0 0-24 h after treatment
[3] = study a, 0.3 mg/kg oral, D-0 0-24 h after treatment
[4] = study a, 1 mg/kg oral, D0 0-24 h after treatment
[5] = study a, 1 mg/kg oral, D-0 0-24 h after treatment
[6] = study a, 3 mg/kg oral, D0 0-24 h after treatment
[7] = study a, 3 mg/kg oral, D-0 0-24 h after treatment
[8] = study a, group of 0.3 mg/kg oral, D-1 0-24 h, day before treatment (solvent only)
[9] = study a, group of 1 mg/kg oral, D-1 0-24 h, day before treatment (solvent only)
[10] = study a, group of 3 mg/kg oral, D-1 0-24 h, day before treatment (solvent only)
[11] = study a, compound A 30 mg/kg, compound B 0.3, 1 or 3 mg/kg, alone or combined
[12] = study b, 1 mg/kg oral, D0 0-24 h after treatment
[13] = study b, group of 1 mg/kg oral, D-1 0-24 h, day before treatment (solvent only)
[14] = study b, compound B 1 mg/kg alone or combined with compound A 3, 10 or 30 mg/kg
[15] = study a, 30 mg/kg oral, D0 0-24 h after treatment
[16] = study a, 30 mg/kg oral, D-0 0-24 h after treatment
[17] = study a, group of 30 mg/kg oral, D-1 0-24 h, day before treatment (solvent only)
[18] = study b, 30 mg/kg oral, D0 0-24 h after treatment
[19] = study b, group of 30 mg/kg oral, D-1 0-24 h, day before treatment (solvent only)

Sequence of human V2 receptors (P30518 whole entry): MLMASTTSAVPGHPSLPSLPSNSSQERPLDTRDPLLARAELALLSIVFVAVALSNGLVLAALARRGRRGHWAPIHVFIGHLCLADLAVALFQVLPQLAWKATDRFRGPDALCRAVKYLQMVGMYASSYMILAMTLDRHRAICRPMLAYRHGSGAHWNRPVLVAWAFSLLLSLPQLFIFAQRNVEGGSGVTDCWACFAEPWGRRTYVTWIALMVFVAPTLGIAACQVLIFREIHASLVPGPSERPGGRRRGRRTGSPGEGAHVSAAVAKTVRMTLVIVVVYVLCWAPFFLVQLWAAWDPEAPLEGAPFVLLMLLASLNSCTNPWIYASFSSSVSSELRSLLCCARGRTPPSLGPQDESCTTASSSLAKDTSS
Sequence of human V1a receptors (P37288 whole entry): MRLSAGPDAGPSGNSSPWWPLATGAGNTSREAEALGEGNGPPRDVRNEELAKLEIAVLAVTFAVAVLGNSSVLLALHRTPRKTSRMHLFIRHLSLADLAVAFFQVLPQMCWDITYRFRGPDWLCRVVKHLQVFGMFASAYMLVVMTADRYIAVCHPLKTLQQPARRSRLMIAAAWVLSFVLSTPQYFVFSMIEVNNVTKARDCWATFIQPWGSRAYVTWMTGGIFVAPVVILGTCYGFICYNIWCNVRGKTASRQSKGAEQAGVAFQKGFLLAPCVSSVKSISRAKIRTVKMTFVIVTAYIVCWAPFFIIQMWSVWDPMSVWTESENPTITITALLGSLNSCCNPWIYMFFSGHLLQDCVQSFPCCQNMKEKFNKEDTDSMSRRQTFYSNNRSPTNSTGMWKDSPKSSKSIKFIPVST

CCOc1ccc2c(c1)C1(CCC(OCCN3CCOCC3)CC1)C(=O)N2S(=O)(=O)c1ccc(C(=O)NC(C)(C)C)cc1OC (stereo not drawn) [Compound B, 1-{4-(N-tert-butylcarbamoyl)-2-methoxybenzenesulfonyl}-5-ethoxy-3-spiro{4-(2-morpholino-ethyloxy)cyclohexane}indol-2-one]
urinary excretion of K+ [1, 2]: 2254 µmol | urinary excretion of Na+ [1, 2]: 1668 µmol | Urinary osmolality [1, 3]: 1075 +/− 165^a mOsmol/kg H2O | Urinary volume [1, 3]: 15 ± 2 mL | urinary excretion of K+ [1, 4]: 2334 µmol | urinary excretion of Na+ [1, 4]: 1783 µmol | Urinary osmolality [1, 5]: 618 +/− 27^a mOsmol/kg H2O | Urinary volume [1, 5]: 25 +/− 2.2^a ml | urinary excretion of K+ [1, 6]: 2648 µmol | urinary excretion of Na+ [1, 6]: 2168 µmol | Urinary osmolality [1, 7]: 292 +/− 40^a mOsmol/kg H2O | Urinary volume [1, 7]: 72.9 +/− 11.1^a ml | Urinary osmolality [1, 8]: 1371 +/− 125 mOsmol/kg H2O | Urinary volume [1, 8]: 9.1 ± 0.7 mL | urinary excretion of K+ [1, 8]: 2001 µmol | urinary excretion of Na+ [1, 8]: 1772 µmol | Urinary osmolality [1, 9]: 1376 +/− 99 mOsmol/kg H2O | Urinary volume [1, 9]: 9.1 ± 0.7 mL | urinary excretion of K+ [1, 9]: 2034 µmol | urinary excretion of Na+ [1, 9]: 1840 µmol | Urinary osmolality [1, 10]: 1443 +/− 46 mOsmol/kg H2O | Urinary volume [1, 10]: 9.5 ± 0.6 mL | urinary excretion of K+ [1, 10]: 2022 µmol | urinary excretion of Na+ [1, 10]: 1903 µmol | effect on urinary excretion (in words) [1, 11]: significantly increases | effect on urinary excretion of Na+ and K+ ions (in words) [1, 11]: no effect | effect on urinary osmolality (in words) [1, 11]: significantly diminishes | Urinary osmolality [1, 12]: 616 +/− 51^a mOsmol/kg H2O | Urinary volume [1, 12]: 31.6 +/− 3.5^a ml | urinary excretion of K+ [1, 12]: 2944 µmol | urinary excretion of Na+ [1, 12]: 2203 µmol | Urinary osmolality [1, 13]: 1308 +/− 68 mOsmol/kg H2O | Urinary volume [1, 13]: 11.7 ± 1.5 mL | urinary excretion of K+ [1, 13]: 2519 µmol | urinary excretion of Na+ [1, 13]: 2039 µmol | effect on urinary excretion (in words) [1, 14]: significantly increases | effect on urinary excretion of Na+ and K+ ions (in words) [1, 14]: no effect | effect on urinary osmolality (in words) [1, 14]: significantly diminishes | V2 arginine vasopressin receptor antagonism (in words) (human V2 receptors; various species, in particular human V2 receptors, J. Clin. Invest., 1996, 98, 2729-2738): potent and selective

COc1ccc(S(=O)(=O)N2c3ccc(Cl)cc3[C@](O)(c3ccccc3Cl)[C@@H]2C(=O)N2CCC[C@H]2C(N)=O)cc1OC [Compound A, (2S)-1-{(2R,3S)-5-chloro-3-(2-chlorophenyl)-1-(3,4-dimethoxybenzenesulfonyl)-3-hydroxy-2,3-dihydro-1H-indole-2-carbonyl}pyrrolidine-2-carboxamide]
urinary excretion of K+ [1, 15]: 2190 µmol | urinary excretion of Na+ [1, 15]: 1668 µmol | Urinary osmolality [1, 16]: 2462 +/− 379^ mOsmol/kg H2O | Urinary volume [1, 16]: 7.3 ± 1.2 mL | Urinary osmolality [1, 17]: 1409 +/− 13 mOsmol/kg H2O | Urinary volume [1, 17]: 10.7 ± 1.1 mL | urinary excretion of K+ [1, 17]: 2265 µmol | urinary excretion of Na+ [1, 17]: 1903 µmol | effect on urinary excretion (in words) [1, 11]: does not modify | effect on urinary excretion of Na+ and K+ ions (in words) [1, 11]: does not alter | effect on urinary osmolality (in words) [1, 11]: does not modify | Urinary osmolality [1, 18]: 2462 +/− 379^ mOsmol/kg H2O | Urinary volume [1, 18]: 7.3 +/− 1.2^ ml | urinary excretion of K+ [1, 18]: 2190 µmol | urinary excretion of Na+ [1, 18]: 1668 µmol | Urinary osmolality [1, 19]: 1409 +/− 13 mOsmol/kg H2O | Urinary volume [1, 19]: 10.7 ± 1.1 mL | urinary excretion of K+ [1, 19]: 2265 µmol | urinary excretion of Na+ [1, 19]: 1903 µmol | V1a arginine vasopressin receptor antagonism (in words) (human V1a receptors): potent and selective | affinity for the V2 receptors (in words) (human V2 receptors; literature description): low affinity
